Values quoted from earlier work as cited in PubChem BioAssay AID1259409 (Chemical Carcinogenesis Research Information System (CCRIS), 2018).

Test system: rodent chemically induced tumor inhibition, incidence and multiplicity
Experiment: CCRIS tumor inhibitor studies
Details: Dose [Inhibitor]: 0, Species: MOUSE, Promoter: NONE USED

S=C=NCCCCCc1ccccc1
tumour outcome (control, treated, inhibition, significance) (Carcinogen: 4-(METHYLNITROSAMINO)-1-(3-PYRIDYL)-1-BUTANONE, 64091-91-4, 0.2 UMOL 1/D FOR 4 D ADMINISTERED PRIOR TO CARCINOGEN TREATMENT (STUDY DURATION: 116 D), Route [Inhibitor]: GAVAGE, Strain/Sex: STRAIN A, Target Tissue: Type of Lesion: LUNG: ADENOMA, Dose [Carcinogen]: 10 UMOL ONCE 2 HR AFTER FINAL DOSE OF INHIBITOR): 100%, 100%, 0%, not significant | tumour outcome (control, treated, inhibition, significance) (Carcinogen: 4-(METHYLNITROSAMINO)-1-(3-PYRIDYL)-1-BUTANONE, 64091-91-4, 1 UMOL 1/D FOR 4 D ADMINISTERED PRIOR TO CARCINOGEN TREATMENT (STUDY DURATION:116 D), Route [Inhibitor]: GAVAGE, Strain/Sex: STRAIN A, Target Tissue: Type of Lesion: LUNG: ADENOMA, Dose [Carcinogen]: 10 UMOL ONCE 2 HR AFTER FINAL DOSE OF INHIBITOR): 100%, 53%, 47%, p<0.05 | tumour outcome (control, treated, inhibition, significance) (Carcinogen: 4-(METHYLNITROSAMINO)-1-(3-PYRIDYL)-1-BUTANONE, 64091-91-4, 5 UMOL 1/D FOR 4 D ADMINISTERED PRIOR TO CARCINOGEN TREATMENT (STUDY DURATION: 116 D), Route [Inhibitor]: GAVAGE, Strain/Sex: STRAIN A, Target Tissue: Type of Lesion: LUNG: ADENOMA, Dose [Carcinogen]: 10 UMOL ONCE 2 HR AFTER FINAL DOSE OF INHIBITOR): 100%, 25%, 75%, p<0.05

c1ccc2c(c1)Nc1ccccc1S2
tumour outcome (control, treated, inhibition, significance) (Carcinogen: BENZO[A]PYRENE, 50-32-8, 3.8 UMOL/G DIET BEGINNING 1 WK PRIOR TO CARCINOGEN TREATMENT AND CONTINUING FOR 1 WK POST CARCINOGEN TREATMENT FOLLOW, Route [Inhibitor]: ORAL, Strain/Sex: CD-1/FEMALE, Target Tissue: Type of Lesion: FORESTOMACH: PAPILLOMA, Dose [Carcinogen]: 1 MG IN 0.2 ML CORN OIL 2/WK FOR 4 WK): 85%, 100%, -18%, not significant

C#C[C@]1(O)CC[C@H]2[C@@H]3CCC4=CC(=O)CC[C@@H]4[C@H]3CC[C@@]21CC (tested in a mixture with another compound)
tumour outcome (control, treated, inhibition, significance) (Carcinogen: 3-METHYLCHOLANTHRENE, 56-49-5, 1/200 OF A PILL CONTAINING 0.25 UG ETHINYLESTRADIOL AND 2.5 UG NORGESTREL 1/D FOR 60 D (STUDY DURATION: 60 D), Route [Inhibitor]: ORAL, Strain/Sex: SWISS/FEMALE, Target Tissue: Type of Lesion: UTERINE CERVIX: TUMOR, Dose [Carcinogen]: 300 UG IN BEESWAX IMPREGNATED COTTON THREAD INSERTED INTO CANAL OF UTERINE CERVIX FOR DURATION OF STUDY): 2/23 (9%), 1/16 (6%), 33%, not significant | tumour outcome (control, treated, inhibition, significance) (Carcinogen: 3-METHYLCHOLANTHRENE, 56-49-5, 1/200 OF A PILL CONTAINING 0.25 UG ETHINYLESTRADIOL AND 2.5 UG NORGESTREL 1/D FOR 90 D (STUDY DURATION: 90 D), Route [Inhibitor]: ORAL, Strain/Sex: SWISS/FEMALE, Target Tissue: Type of Lesion: UTERINE CERVIX: TUMOR, Dose [Carcinogen]: 300 UG IN BEESWAX IMPREGNATED COTTON THREAD INSERTED INTO CANAL OF UTERINE CERVIX FOR DURATION OF STUDY): 6/23 (26%), 1/29 (3%), 88%, p<0.05 | tumour outcome (control, treated, inhibition, significance) (Carcinogen: 3-METHYLCHOLANTHRENE, 56-49-5, 1/2000 OF A PILL CONTAINING 0.025 UG ETHINYLESTRADIOL AND 0.25 UG OF NORGESTREL 1/D FOR 60 D (STUDY DURATION: 60 D), Route [Inhibitor]: ORAL, Strain/Sex: SWISS/FEMALE, Target Tissue: Type of Lesion: UTERINE CERVIX: TUMOR, Dose [Carcinogen]: 300 UG IN BEESWAX IMPREGNATED COTTON THREAD INSERTED INTO CANAL OF UTERINE CERVIX FOR DURATION OF STUDY): 2/23 (9%), 0/22 (0%), 100%, not significant | tumour outcome (control, treated, inhibition, significance) (Carcinogen: 3-METHYLCHOLANTHRENE, 56-49-5, 1/2000 OF A PILL CONTAINING 0.025 UG ETHINYLESTRADIOL AND 0.25 UG OF NORGESTREL 1/D FOR 90 D (STUDY DURATION: 90 D), Route [Inhibitor]: ORAL, Strain/Sex: SWISS/FEMALE, Target Tissue: Type of Lesion: UTERINE CERVIX: TUMOR, Dose [Carcinogen]: 300 UG IN BEESWAX IMPREGNATED COTTON THREAD INSERTED INTO THE CANAL OF THE UTERINE CERVIX FOR THE DURATION OF STUDY): 6/23 (26%), 1/30 (3%), 88%, p<0.05
